Test results from patent US20250230193A1, “CYCLIC COMPOUND HAVING SELECTIVE KRAS INHIBITORY EFFECT ON HRAS AND NRAS” (CHUGAI SEIYAKU KABUSHIKI KAISHA, priority 2022, published 2025).

Assays:
[1] = target: GDP-bound NRAS wild-type protein (Homo sapiens, UniProt P01111); assay: Binding to NRAS by surface plasmon resonance (SPR), Single Cycle Kinetics; conditions: KD ratio NRAS/KRAS, SPR
[2] = target: GDP-bound HRAS wild-type protein (Homo sapiens, UniProt P01112); assay: Binding to HRAS by surface plasmon resonance (SPR), Single Cycle Kinetics; conditions: KD ratio HRAS/KRAS, SPR
GDP-bound HRAS wild-type protein, sequence (P01112 whole entry): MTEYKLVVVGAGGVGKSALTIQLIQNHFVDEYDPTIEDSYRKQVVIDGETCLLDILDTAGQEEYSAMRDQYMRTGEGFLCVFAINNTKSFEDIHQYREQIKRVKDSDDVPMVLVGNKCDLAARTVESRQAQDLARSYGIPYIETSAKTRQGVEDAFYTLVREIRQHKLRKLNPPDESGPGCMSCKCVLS

GDP-bound NRAS wild-type protein, sequence (P01111 whole entry): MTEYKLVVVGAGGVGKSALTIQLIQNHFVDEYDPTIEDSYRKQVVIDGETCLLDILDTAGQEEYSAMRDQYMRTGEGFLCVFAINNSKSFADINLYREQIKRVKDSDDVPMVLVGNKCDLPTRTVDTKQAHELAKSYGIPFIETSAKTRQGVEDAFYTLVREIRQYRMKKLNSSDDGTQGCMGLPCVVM

Row | Structure (SMILES) | NRAS/KRAS (ratio of KD value with respect to GDP-bound NRAS wild-type protein to KD value with respect to KRAS) [1] | HRAS/KRAS (ratio of KD value with respect to GDP-bound HRAS wild-type protein to KD value with respect to KRAS) [2]
1 | CC[C@H](C)[C@@H]1NC(=O)[C@H](C)N(C)C(=O)C[C@@H](C(=O)N2CCOCC2)N(C)C(=O)[C@H](C2CCCC2)N(C)C(=O)C2(CCC2)NC(=O)[C@@H]2CC(F)(F)CN2C(=O)[C@H](CCc2cc(F)c(C(F)(F)F)c(F)c2)NC(=O)CN(C)C(=O)[C@H](Cc2ccc(C(F)(F)F)cc2)N2CCCC[C@@H](C2=O)N(C)C(=O)CN(C)C1=O [PP0582] | C (A compound having a KD ratio of 0.1 or more and less than 3 is denoted as C) | B (a compound having 3 or more and less than 10 is denoted as B)
2 | CC[C@H](C)[C@@H]1NC(=O)[C@H](C)N(C)C(=O)C[C@@H](C(=O)N(C)C)N(C)C(=O)[C@H](C2CCCC2)N(C)C(=O)C2(CCCC2)NC(=O)[C@@H]2CC(F)(F)CN2C(=O)[C@H](CCc2cc(F)c(C(F)(F)F)c(F)c2)NC(=O)CN(C)C(=O)[C@H](Cc2ccc(C(F)(F)F)cc2)N2CCCC[C@@H](C2=O)N(C)C(=O)CN(C)C1=O [PP0583] | C (A compound having a KD ratio of 0.1 or more and less than 3 is denoted as C) | C (A compound having a KD ratio of 0.1 or more and less than 3 is denoted as C)
3 | CC[C@H](C)[C@@H]1NC(=O)[C@H](C)N(C)C(=O)C[C@@H](C(=O)N(C)C)N(C)C(=O)[C@H](C2CCCC2)N(C)C(=O)C2(CCC2)NC(=O)[C@@H]2CC(F)(F)CN2C(=O)[C@H](CCc2cc(F)c(C(F)(F)F)c(F)c2)NC(=O)CN(C)C(=O)[C@H](Cc2ccc(C(F)(F)F)cc2)N2CCCC[C@@H](C2=O)N(C)C(=O)CN(C)C1=O [PP0584] | C (A compound having a KD ratio of 0.1 or more and less than 3 is denoted as C) | C (A compound having a KD ratio of 0.1 or more and less than 3 is denoted as C)
4 | CCO[C@@H]1C[C@H]2C(=O)NC3(CCC3)C(=O)N(C)[C@@H](C3CCCC3)C(=O)N(C)[C@H](C(=O)N3CCOCC3)CC(=O)N(C)[C@@H](C)C(=O)N[C@@H]([C@@H](C)CC)C(=O)N(C)CC(=O)N(C)[C@H]3CCCCN(C3=O)[C@@H](Cc3ccc(C(F)(F)F)cc3)C(=O)N(C)CC(=O)N[C@@H](CCc3cc(F)c(C(F)(F)F)c(F)c3)C(=O)N2C1 [PP0585] | B (a compound having 3 or more and less than 10 is denoted as B) | B (a compound having 3 or more and less than 10 is denoted as B)
5 | CCO[C@@H]1C[C@H]2C(=O)NC3(CCCC3)C(=O)N(C)[C@@H](C3CCCC3)C(=O)N(C)[C@H](C(=O)N(C)C)CC(=O)N(C)[C@@H](C)C(=O)N[C@@H]([C@@H](C)CC)C(=O)N(C)CC(=O)N(C)[C@H]3CCCCN(C3=O)[C@@H](Cc3ccc(C(F)(F)F)cc3)C(=O)N(C)CC(=O)N[C@@H](CCc3cc(F)c(C(F)(F)F)c(F)c3)C(=O)N2C1 [PP0586] | C (A compound having a KD ratio of 0.1 or more and less than 3 is denoted as C) | B (a compound having 3 or more and less than 10 is denoted as B)
6 | CCO[C@@H]1C[C@H]2C(=O)NC3(CCC3)C(=O)N(C)[C@@H](C3CCCC3)C(=O)N(C)[C@H](C(=O)N(C)C)CC(=O)N(C)[C@@H](C)C(=O)N[C@@H]([C@@H](C)CC)C(=O)N(C)CC(=O)N(C)[C@H]3CCCCN(C3=O)[C@@H](Cc3ccc(C(F)(F)F)cc3)C(=O)N(C)CC(=O)N[C@@H](CCc3cc(F)c(C(F)(F)F)c(F)c3)C(=O)N2C1 [PP0587] | C (A compound having a KD ratio of 0.1 or more and less than 3 is denoted as C) | C (A compound having a KD ratio of 0.1 or more and less than 3 is denoted as C)
7 | CC[C@H](C)[C@@H]1NC(=O)[C@H](CC(C)C)N(CC)C(=O)C[C@@H](C(=O)N2CCOCC2)N(C)C(=O)[C@H](C2CCCC2)N(C)C(=O)C2(CCCC2)NC(=O)[C@@H]2CCCN2C(=O)[C@H](CCc2cc(F)c(C(F)(F)F)c(F)c2)NC(=O)CN(C)C(=O)[C@H](Cc2ccc(C(F)(F)F)cc2)N2CCCC[C@@H](C2=O)N(C)C(=O)CN(C)C1=O [PP0588] | B (a compound having 3 or more and less than 10 is denoted as B) | B (a compound having 3 or more and less than 10 is denoted as B)
8 | CC[C@H](C)[C@@H]1NC(=O)[C@H](CC(C)C)N(C)C(=O)C[C@@H](C(=O)N2CCOCC2)N(C)C(=O)[C@H](C2CCCC2)N(C)C(=O)C2(CCCC2)NC(=O)[C@H](C)N(CC)C(=O)[C@H](CCc2cc(F)c(C(F)(F)F)c(F)c2)NC(=O)CN(C)C(=O)[C@H](Cc2ccc(C(F)(F)F)cc2)N2CCCC[C@@H](C2=O)N(C)C(=O)CN(C)C1=O [PP0589] | B (a compound having 3 or more and less than 10 is denoted as B) | B (a compound having 3 or more and less than 10 is denoted as B)
9 | CC[C@H](C)[C@@H]1NC(=O)[C@H](CC(C)C)NC(=O)C[C@@H](C(=O)N2CCOCC2)N(C)C(=O)[C@H](C2CCCC2)N(C)C(=O)C2(CCCC2)NC(=O)[C@@H]2CCCN2C(=O)[C@H](CCc2cc(F)c(C(F)(F)F)c(F)c2)NC(=O)CN(C)C(=O)[C@H](Cc2ccc(C(F)(F)F)cc2)N2CCCC[C@@H](C2=O)N(C)C(=O)CN(C)C1=O [PP0590] | C (A compound having a KD ratio of 0.1 or more and less than 3 is denoted as C) | B (a compound having 3 or more and less than 10 is denoted as B)
10 | CC[C@H](C)[C@@H]1NC(=O)[C@@H](CC(C)C)N(C)C(=O)C[C@@H](C(=O)N2CCOCC2)N(C)C(=O)[C@H](C2CCCC2)N(C)C(=O)C2(CCCC2)NC(=O)[C@@H]2CCCN2C(=O)[C@H](CCc2cc(F)c(C(F)(F)F)c(F)c2)NC(=O)CN(C)C(=O)[C@H](Cc2ccc(C(F)(F)F)cc2)N2CCCC[C@@H](C2=O)N(C)C(=O)CN(C)C1=O [PP0591] | B (a compound having 3 or more and less than 10 is denoted as B) | B (a compound having 3 or more and less than 10 is denoted as B)
11 | CC[C@H](C)[C@@H]1NC(=O)[C@H](CC(F)(F)F)N(C)C(=O)C[C@@H](C(=O)N2CCOCC2)N(C)C(=O)[C@H](C2CCCC2)N(C)C(=O)C2(CCCC2)NC(=O)[C@@H]2CCCN2C(=O)[C@H](CCc2cc(F)c(C(F)(F)F)c(F)c2)NC(=O)CN(C)C(=O)[C@H](Cc2ccc(C(F)(F)F)cc2)N2CCCC[C@@H](C2=O)N(C)C(=O)CN(C)C1=O [PP0594] | C (A compound having a KD ratio of 0.1 or more and less than 3 is denoted as C) | B (a compound having 3 or more and less than 10 is denoted as B)
12 | CC[C@H](C)[C@@H]1NC(=O)[C@@H]2CCCCCN2C(=O)C[C@@H](C(=O)N2CCOCC2)N(C)C(=O)[C@H](C2CCCC2)N(C)C(=O)C2(CCCC2)NC(=O)[C@@H]2CCCN2C(=O)[C@H](CCc2cc(F)c(C(F)(F)F)c(F)c2)NC(=O)CN(C)C(=O)[C@H](Cc2ccc(C(F)(F)F)cc2)N2CCCC[C@@H](C2=O)N(C)C(=O)CN(C)C1=O [PP0595] | C (A compound having a KD ratio of 0.1 or more and less than 3 is denoted as C) | B (a compound having 3 or more and less than 10 is denoted as B)
13 | CC(C)C[C@H]1C(=O)N[C@@H](C2CCC2)C(=O)N(C)CC(=O)N(C)[C@H]2CCCCN(C2=O)[C@@H](Cc2ccc(C(F)(F)F)cc2)C(=O)N(C)CC(=O)N[C@@H](CCc2cc(F)c(C(F)(F)F)c(F)c2)C(=O)N2CCC[C@H]2C(=O)NC2(CCCC2)C(=O)N(C)[C@@H](C2CCCC2)C(=O)N(C)[C@H](C(=O)N2CCOCC2)CC(=O)N1C [PP0596] | B (a compound having 3 or more and less than 10 is denoted as B) | B (a compound having 3 or more and less than 10 is denoted as B)
14 | CCC(CC)[C@@H]1NC(=O)[C@H](CC(C)C)N(C)C(=O)C[C@@H](C(=O)N2CCOCC2)N(C)C(=O)[C@H](C2CCCC2)N(C)C(=O)C2(CCCC2)NC(=O)[C@@H]2CCCN2C(=O)[C@H](CCc2cc(F)c(C(F)(F)F)c(F)c2)NC(=O)CN(C)C(=O)[C@H](Cc2ccc(C(F)(F)F)cc2)N2CCCC[C@@H](C2=O)N(C)C(=O)CN(C)C1=O [PP0597] | B (a compound having 3 or more and less than 10 is denoted as B) | B (a compound having 3 or more and less than 10 is denoted as B)
15 | CC[C@H](C)[C@@H]1NC(=O)[C@H](CC(C)C)N(C)C(=O)C[C@@H](C(=O)N2CCOCC2)N(C)C(=O)[C@H](C2CCCC2)N(C)C(=O)C2(CCCC2)NC(=O)[C@@H]2CCCN2C(=O)[C@H](CCc2ccc(C(F)(F)F)c(Cl)c2)NC(=O)CN(C)C(=O)[C@H](Cc2ccc(F)cc2)N2C/C=C\CC[C@@H](C2=O)N(C)C(=O)CN(C)C1=O [PP0607] | C (A compound having a KD ratio of 0.1 or more and less than 3 is denoted as C) | B (a compound having 3 or more and less than 10 is denoted as B)
16 | CC[C@H](C)[C@@H]1NC(=O)[C@H](CC(C)C)N(C)C(=O)C[C@@H](C(=O)N2CCOCC2)N(C)C(=O)[C@H](C2CCCC2)N(C)C(=O)C2(CCCC2)NC(=O)[C@@H]2CCCN2C(=O)[C@H](CCc2ccc(C(F)(F)F)c(Cl)c2)NC(=O)CN(C)C(=O)[C@H](Cc2ccc(Cl)cc2)N2C/C=C\CC[C@@H](C2=O)N(C)C(=O)CN(C)C1=O [PP0608] | C (A compound having a KD ratio of 0.1 or more and less than 3 is denoted as C) | B (a compound having 3 or more and less than 10 is denoted as B)
